Reference: patent publication US9783537B2, “3-(4-ethylnylphenyl) pyridopyrimidinone compounds and process for preparation thereof useful as potential anticancer agents” (Council of Scientific & Industrial Research, priority 2013, dated 2017)
Where two headings read alike, the source gives them in different places.

Legend:
[1] = test system: CCRF-CEM; experiment: SRB 48 h growth assay, Leukemia CCRF-CEM; type: cell-based, human; details: Homo sapiens
[2] = test system: A549/ATCC; experiment: SRB 48 h growth assay, Non-small Cell Lung A549/ATCC; type: cell-based, human; details: Homo sapiens, read-out: Log10 LC50 (converted)
[3] = test system: HOP-92; experiment: SRB 48 h growth assay, Non-small Cell Lung HOP-92; type: cell-based, human; details: Homo sapiens, HOP-92, Non-small Cell Lung
[4] = test system: NCI-H226; experiment: SRB 48 h growth assay, Non-small Cell Lung NCI-H226; type: cell-based, human; details: Homo sapiens
[5] = test system: NCI-H23; experiment: SRB 48 h growth assay, Non-small Cell Lung NCI-H23; type: cell-based, human; details: Homo sapiens, read-out: Log10 LC50 (converted)
[6] = test system: HCT-116; experiment: SRB 48 h growth assay, Colon HCT-116; type: cell-based, human; details: Homo sapiens, HCT-116, Colon
[7] = test system: SNB-75; experiment: SRB 48 h growth assay, CNS SNB-75; type: cell-based, human; details: Homo sapiens, SNB-75, CNS
[8] = test system: MDA-MB-435; experiment: SRB 48 h growth assay, Melanoma MDA-MB-435; type: cell-based, human; details: Homo sapiens, MDA-MB-435, Melanoma
[9] = test system: UACC-257; experiment: SRB 48 h growth assay, Melanoma UACC-257; type: cell-based, human; details: Homo sapiens, UACC-257, Melanoma
[10] = test system: UACC-62; experiment: SRB 48 h growth assay, Melanoma UACC-62; type: cell-based, human; details: Homo sapiens, UACC-62, Melanoma
[11] = test system: OVCAR-3; experiment: SRB 48 h growth assay, Ovarian OVCAR-3; type: cell-based, human; details: Homo sapiens, OVCAR-3, Ovarian
[12] = test system: NCI/ADR-RES; experiment: SRB 48 h growth assay, Ovarian NCI/ADR-RES; type: cell-based, human; details: Homo sapiens
[13] = test system: ACHN; experiment: SRB 48 h growth assay, Renal ACHN; type: cell-based, human; details: Homo sapiens
[14] = test system: PC-3; experiment: SRB 48 h growth assay, Prostate PC-3; type: cell-based, human; details: Homo sapiens, PC-3, Prostate
[15] = test system: DU-145; experiment: SRB 48 h growth assay, Prostate DU-145; type: cell-based, human; details: Homo sapiens, DU-145, Prostate, read-out: Log10 LC50 (converted)
[16] = test system: six leukemia cancer cell lines (CCRF-CEM, HL-60, K-562, MOLT-4, SR and RPMI-8226); experiment: in vitro anticancer activity, leukemia panel; type: cell-based; details: Homo sapiens, exposure at least 48 h, read-out: GI50, range over panel
[17] = test system: six CNS cancer cell line (SF-268, SF-295, SF-539, SNB-19, SNB-75 and U251); experiment: in vitro anticancer activity, CNS panel; type: cell-based; details: Homo sapiens; six CNS cancer cell lines, exposure at least 48 h; read-out: GI50, range over panel
[18] = test system: two prostate cancer cell line (PC-3, DU-145); experiment: in vitro anticancer activity, prostate panel; type: cell-based; details: Homo sapiens; two prostate cancer cell lines, exposure at least 48 h; read-out: GI50, range over panel
[19] = test system: six breast cancer cell line (MCF-7, MDA-MB-231/ATCC, HS 578T, TD-47D, MDA-MB-468 and BT-549); experiment: in vitro anticancer activity, breast panel; type: cell-based; details: Homo sapiens; six breast cancer cell lines, exposure at least 48 h; read-out: GI50, range over panel
[20] = read-out: Growth Inhibition GI50
[21] = read-out: Log10 GI50 (converted)
[22] = read-out: Log10 LC50 (converted)

With C#Cc1ccc(-n2c(/C=C/c3ccc(Cl)c(F)c3)nc3ncccc3c2=O)cc1 [4g, (E)-2-(4-chloro-3-fluorostyryl)-3-(4-ethynylphenyl)pyrido[2,3-d]pyrimidin-4(3H)-one] the CC50 ([1]; CCKF-CEM, read-out: Log10 LC50 (converted)) was > 100000 nM, the GI50 [1, 20] was 290 nM and the GI50 [1, 21] was 288 nM. The CC50 [2] was > 100000 nM, the GI50 [3, 20] was 200 nM and the GI50 [3, 21] was 204 nM. For the same molecule, the GI50 [4, 20] was 350 nM, the GI50 [4, 21] was 355 nM and the LC50 [5] was > 100000 nM. For the same molecule, the GI50 [6, 20] was 330 nM, the GI50 [6, 21] was 331 nM and the GI50 [7, 20] was 340 nM. It also gave a GI50 [7, 21] of 339 nM, a GI50 [8, 20] of 190 nM and a GI50 [8, 21] of 195 nM. For the same molecule, the CC50 [8, 22] was > 100000 nM, the GI50 [9, 20] was 540 nM and the GI50 [9, 21] was 537 nM. For the same molecule, the GI50 [10, 20] was 480 nM, the GI50 [10, 21] was 490 nM and the GI50 [11, 20] was 300 nM. The GI50 [11, 21] was 302 nM, the GI50 [12, 20] was 410 nM and the GI50 [12, 21] was 417 nM. The CC50 [12, 22] was > 100000 nM, the GI50 [13, 20] was 390 nM and the GI50 [13, 21] was 398 nM. The GI50 [14, 20] was 340 nM, the GI50 [14, 21] was 347 nM and the CC50 [14, 22] was > 100000 nM. For the same molecule, the CC50 [15] was > 100000 nM, the GI50 [16] was 250 to 540 nM and the GI50 [17] was 340 nM. The GI50 [18] was 340 nM and the GI50 [19] was 240 to 410 nM.
